Reference: patent US20230257383A1, “COMPOUND SERVING AS BTK INHIBITOR, PREPARATION METHOD THEREFOR, AND USE THEREOF” (CHENGDU HYPERWAY PHARMACEUTICALS CO., LTD., priority 2020, published 2023)

Experiments:
[1] = Liver microsome metabolic stability test (rat); type: in vitro ADME; settings: for microsomal CLint: liver microsomes, read-out: CLint (μL/min/mg) Rat
Experimental: (§1) 1: To the sample wells of T0, T5, T10, T20, T30, T60 and NCF60, 10 μL of the test or reference working solution and 80 μL of microsome working solution (hepatic microsome with a protein concentration of 0.5 mg/mL) were added, and to Blank60 well, only the microsome working solution was added. Then samples of the Blank60, T5, T10, T20, T30 and T60 other than TO and NCF60 were placed in a 37° C. water bath and pre-incubated for about 10 min.
(§2) 2: To the TO sample well, 300 μL of stop solution (containing 200 ng/mL tolbutamide and 200 ng/mL labetalol in acetonitrile solution) was added first, followed by 10 μL of NADPH regeneration system working solution.
(§3) 3: After the pre-incubation of Blank60, T5, T10, T20, T30 and T60 incubation plates, 10 μL of NADPH regeneration system working solution was added to each sample well to start the reaction, and 10 μL of 100 mM potassium phosphate buffer was added to the NCF60 sample well.
(§4) 4: After incubation for an appropriate time (such as 5, 10, 20, 30 and 60 min), to each test sample well and control well of the Blank60, T5, T10, T20, T30, T60 and NCF60 plates, 300 μL of stop solution was added to terminate the reaction.
(§5) 5: All sample plates were shaken to mix well and centrifuged at 4000 rpm for 20 min, and 100 μL of the supernatant of the test sample or control sample was taken and diluted with 300 μL of pure water for LC-MS/MS analysis.
(§6) 6: Data analysis: T1/2 and CLint(mic) (μL/min/mg) values were calculated according to the first-order elimination kinetics. The first-order elimination kinetics equation was: […]

[2] = Liver microsome metabolic stability test (human); type: in vitro ADME; settings: for microsomal CLint: liver microsomes, read-out: CLint (μL/min/mg) Human
Experimental: as §1, §2, §3, §4, §5, §6

[3] = Pharmacokinetic test, oral, SD rats; type: in vivo; settings: oral 10 mg/kg
Experimental: Each test compound was administered orally (10 mg/kg, 3 rats in each group) to SD rats for pharmacokinetic study. […] Animals were fasted overnight before oral administration, and fed again after 4 h of administration. […] At each collection time point, 3 whole blood samples were collected at a the collection volume of about 0.2-0.3 mL. […] The collected plasma was stored at −20° C. before analysis. 20 μL of plasma sample was added into a 1.6 mL 96-well deep-well plate, added with 200 μL of working internal standard solution (the same volume of vehicle was added to the blank instead of internal standard), vortexed for 1 min, and centrifuged at 5800 rpm for 10 min. 100 μL of the supernatant was added to a 96-well injection plate for LC-MS/MS analysis.

TMD8 cell proliferation = test: In vitro cell proliferation inhibitory activity test (CTG), TMD8; type: cell-based; settings: Homo sapiens, TMD8, 72 h, TMD8 cells
Experimental: (§7) Test Example 4: In Vitro Cell Proliferation Inhibitory Activity Test
(§8) Cells were cultured in 1640 medium, added with 10% inactivated FBS and 1% double antibiotics, and cultured at 37° C. and 5% CO2.
(§9) (1) Cells were routinely cultured until the cell density was 80%-90%, and the cells were harvested when their number reached the requirement.
(§10) (2) Cells were resuspended with corresponding culture medium, counted, and prepared into cell suspension at appropriate density.
(§11) (3) The cell suspension was added to a 96-well plate, 100 μL per well.
(§12) (4) Cells were cultured overnight in a 37° C., 5% CO2 incubator.
(§13) (1) The compounds to be tested were diluted with DMSO to make a stock solution with a final concentration of 20 mM for later use.
(§14) (2) The stock solution was diluted 10 times from 20 mM to 2 mM with DMSO, and then diluted 3 times from 2 mM to 9 concentrations.
(§15) (3) The blank control wells were cells plus 0.5% DMSO, as high-reading control wells.
(§16) (4) Wells with no cells and only medium were used as low-reading control wells.
(§17) 4: Cell treatment with compound
(§18) (1) 24 h after the cells were plated, the compounds acted alone, and 99 μL of growth medium was added to each well, followed by 1 μL of the compound prepared in step 3. The plate was shaken gently to mix uniformly, and then placed in a 37° C., 5% CO2 incubator.
(§19) (2) The cell plate was placed in an incubator for 72 h.
(§20) 5: Detection by CTG method
(§21) (1) The cell plate to be tested was placed at room temperature for 30 min, and 100 μL of medium was discarded from each well.
(§22) (2) 100 μL of CTG reagent (CelltiterGlo kit) was added to each well, placed on a fast shaker for 2 min, and stood at room temperature in the dark for 30 min.
(§23) (3) The chemiluminescent signal value was read with the Envision instrument.
(§24) IC50 was calculated by using GraphPad Prism 8 software. The IC50 (half inhibitory concentration) of the compound was derived using the following nonlinear fitting formula, and the results are shown in the following table:
(§25) Y=Bottom+(Top−Bottom)/(1+10^((Log IC50−X)×HillSlope))
(§26) X: log value of compound concentration, Y: inhibition rate (% inhibition)
(§27) Inhibition rate (% inhibition)=(reading of high-reading control well-reading of compound well)/(reading of high-reading control well-reading of low-reading control well)×100

DOHH2 cell proliferation = test: In vitro cell proliferation inhibitory activity test (CTG), DOHH2; type: cell-based; settings: Homo sapiens, DOHH-2
Experimental: as §7, §8, §9, §10, §11, §12, §13, §14, §15, §16, §17, §18, §19, §20, §21, §22, §23, §24, §25, §26, §27

BT474 cell proliferation = test: In vitro cell proliferation inhibitory activity test (CTG), BT474; type: cell-based; settings: Homo sapiens, BT-474, BT474 cell proliferation
Experimental: as §7, §8, §9, §10, §11, §12, §13, §14, §15, §16, §17, §18, §19, §20, §21, §22, §23, §24, §25, §26, §27

Row | Compound | IC50 (TMD8 cell proliferation) | microsomal CLint [1] | microsomal CLint [2] | IC50 (BT474 cell proliferation) | further results
1 | Nc1nccn2c([C@@H]3CC[C@H](CO)OC3)nc(-c3ccc(C(=O)Nc4ccccn4)cc3)c12 (single isomer, unassigned) [Example 2-A-P1] |  |  |  |  | CLint (μL/min/mg) Rat [1]: <9.6 µL/min/mg; % Remaining (60 min) Rat ([1]; 60 min): 95.5%; CLint (μL/min/mg) Human [2]: <9.6 µL/min/mg; % Remaining (60 min) Human ([2]; 60 min): 122.5%; AUC(0-∞) [3]: 77004 ng·h/mL
2 | COc1ccccc1C(=O)NCc1ccc(-c2nn(C3CCC(CO)OC3)c3ncnc(N)c23)cc1 (single isomer, unassigned) [Example 60-B] |  |  |  |  | Cl [3]: 188.82 mL/min/kg
3 | Nc1nccn2c(C3CCC(CO)OC3)nc(-c3ccc(C(=O)Nc4cc(C(F)(F)F)ccn4)cc3)c12 (single isomer, unassigned) [Example 109-P1] | 12.2 nM |  |  |  | 
4 | O=C(c1ccc(Oc2ccccc2)cc1Cl)c1c[nH]c2ncnc(N[C@@H]3CC[C@@H](CO)OC3)c12 [ARQ-531, reference compound] | 74.6 nM | < 9.6 µL/min/mg | < 9.6 µL/min/mg |  | IC50 (DOHH2 cell proliferation): 174 nM
5 | Nc1nccn2c(C34CCC(CO)(CC3)OC4)nc(-c3ccc(C(=O)Nc4ccccn4)cc3)c12 [Example 34] | 56.9 nM | < 9.6 µL/min/mg | < 9.6 µL/min/mg |  | 
6 | N#Cc1ccnc(NC(=O)c2ccc(-c3nc(C4CCC(CO)OC4)n4ccnc(N)c34)cc2)c1 (centres unmarked) [Example 103] | 25.1 nM | < 9.6 µL/min/mg | < 9.6 µL/min/mg |  | Cl [3]: 16.67 mL/min/kg
7 | Nc1nccn2c(C3CCC(CO)OC3)nc(-c3ccc(Cc4ccccc4)cc3)c12 (centres unmarked) [Example 106] | 49.5 nM | 29.5 µL/min/mg | 13.1 µL/min/mg |  | 
8 | Nc1nccn2c(C34CCC(CO)(CC3)OC4)nc(-c3ccc(C(F)(F)c4ccccc4)cc3F)c12 [Example 114] |  |  |  | 173 nM | 
9 | COc1cccc(Oc2ccc(-c3nc(C45CCC(CO)(CC4)OC5)n4ccnc(N)c34)c(F)c2)c1C#N [Example 115] | 6.1 nM |  |  |  | 
10 | COc1cccc(C(F)(F)c2ccc(-c3nc(C45CCC(CO)(CC4)OC5)n4ccnc(N)c34)cc2)c1F [Example 129] |  |  |  | 208 nM | 
11 | Cc1cccc(C(F)(F)c2ccc(-c3nc(C45CCC(CO)(CC4)OC5)n4ccnc(N)c34)cc2)c1F [Example 139] |  |  |  | 209 nM | 
12 | Nc1nccn2c(C34CCC(CO)(CC3)OC4)nc(-c3ccc(C(F)(F)c4ccc(F)c(Cl)c4)cc3)c12 [Example 140] |  |  |  | 504 nM | 
